What all share (format): cell-based
Assay [1] has as its system Staphylococcus aureus ATCC25923. Put plainly: Broth microdilution MIC in Mueller Hinton broth.
The subject of assay [2] is Pseudomonas aeruginosa ATTC27853. Put plainly: Broth microdilution MIC in Mueller Hinton broth.
Assay [3] relates to Escherichia coli ATTC25922. Put plainly: Broth microdilution MIC in Mueller Hinton broth. On the technique in general: Broth dilution looks for growth in wells or tubes with falling amounts of substance.
The subject of assay [4] is Bacillus cereus ATCC14579. In words: Broth microdilution MIC in Mueller Hinton broth.
For assay [5], the system named is Enterococcus faecalis ATCC29212. In words: Broth microdilution MIC in Mueller Hinton broth.
The subject of assay [6] is Listeria monocytogenes ATCC7644. In words: Broth microdilution MIC in Mueller Hinton broth.
For assay [7], the system named is Staphylococcus aureus Clinical/MRSA. In words: Broth microdilution MIC in Mueller Hinton broth. The conditions noted are these: for MIC: Staphylococcus aureus, MRSA, read-out: Minimum Inhibitory Concentration (MIC) Staphylococcus aureus Clinical/MRSA.
Assay [8] concerns Staphylococcus aureus ATCC33591. In words: Broth microdilution MIC in Mueller Hinton broth.
The test system of assay [9] is Staphylococcus aureus ATCC 33591. The conditions noted are these: MIC in MHB vs MIC with 10 µM CCCP, S. aureus ATCC 33591.
Experimental: Bacterial susceptibility toward (±)3-amidoquinuclidine quaternary ammonium compounds was evaluated in the presence of an ATP synthesis inhibitor carbonyl cyanide 3-chlorophenylhydrazone (CCCP) (Sigma Aldrich). The minimum inhibitory concentration (MIC) of CCCP against Staphylococcus aureus ATCC 33591 (MRSA) was established before the experiment. The overnight culture of Staphylococcus aureus ATCC 33591 was diluted in tempered Mueller Hinton broth (MHB) and cultivated in the orbital shaker at 37 °C and 220 rpm. When the culture reached the preexponential phase of growth (OD600 = 0.3–0.5), it was diluted to a final concentration of 5 × 10^5 CFU/mL in MHB containing 10 µM CCCP. A total of 50 µL of prepared cell suspension was pipetted into a 96-well plate containing twofold serial dilutions of tested compounds in MHB with CCCP at a final concentration of 10 µM. Plates were incubated overnight, and the MIC reduction of tested compounds in the presence of 10 µM CCCP was recorded the following day.
The subject of assay [10] is Salmonella enterica food isolate. Put plainly: microbe, parasite or virus in culture. The conditions noted are these: MHB, read-out: Minimum Inhibitory Concentration (MIC) Salmonella enterica food isolate.
In assay [11] the test system is Staphylococcus aureus ATCC 25923. Put plainly: MIC in cation-adjusted Mueller Hinton broth (CA-MHB). The conditions noted are these: ATCC25923, read-out: MIC CA-MHB. The procedure:
A representative bacterial strain, Staphylococcus aureus ATCC 25923, was grown overnight in Mueller Hinton broth (MHB). The following day, the culture was diluted in tempered MHB and allowed to grow at 37 °C with constant shaking of 220 rpm. Once the bacterial culture reached the exponential growth phase (OD600 = 0.3–0.5), it was diluted in the cation-adjusted Mueller Hinton broth (CA-MHB) containing MgCl2 (10 mM) to the final cell count of 5 × 10^5 CFU/mL. The previously prepared 96-well plate contained twofold serial dilutions of the compounds to be tested, dissolved in CA-MHB, in the concentrations range of 125 µM to 0.12 µM. Then, 50 µL of the bacterial cells diluted in CA-MHB was pipetted in each well of the plate and incubated overnight at 37 °C with constant shaking at 220 rpm. The next day, the minimum inhibitory concentration (MIC) was determined as the lowest concentration of the compound that prevented supposed bacterial growth in the wells. Visually determined results of antibacterial activity were confirmed by the addition of 20 µL 2-(4-iodophenyl)-3-(4-nitrophenyl)-5-phenyltetrazolium chloride (INT) reagent (6 mg/mL). The MIC value of a drug in CA-MHB containing NaCl (85 mM) was determined using the same experimental technique.

Assay [12] has the same test system. Put plainly: Time-resolved growth analysis. The procedure:
The growth kinetic experiments were performed to further investigate the efficacy of the selected 3-amidoquinnuclidine candidates. The candidates from series 1 (QC14-Me, QC14-Ally, QC16-Me, and QC16-Ally) and series 3 (QBn-C12, QBn-C14, and QBn-C16) were incubated at MIC and ½ MIC for 350 min with an appropriate number of CFU of Staphylococcus aureus ATCC 25923 at 37 °C with shaking. Time-resolved growth analysis was performed along with the control, in which bacterial growth was monitored without the presence of the antibacterial agent.
Time-resolved growth analysis was performed in the microtiter plate reader (Bio-Tek EL808, Winooski, VT, USA) by incubating the selected antibacterial agent with Staphylococcus aureus ATCC 25923. The exponentially grown culture (OD600 = 0.3–0.5) of S. aureus ATCC 25923 was diluted to a final concentration of 5 × 10^4 CFU/mL. Then, 50 µL of such prepared cell culture was added to the 96-well plates containing the MIC or ½ MIC of the compound to be tested. The plates were incubated at 37 °C for 350 min in the microplate reader with shaking. OD600 was recorded at 10 min intervals. The results obtained represent the mean of two independent experiments performed in triplicate.

Assay [13] deals with Staphylococcus aureus ATCC 25923 biofilm. Put plainly: Biofilm inhibition assay (crystal violet). The note with it: ATCC25923, 12.5 μg mL−1, 48 h. The procedure: Therefore, we investigated the antibiofilm activity of the new 3-amidoquinuclidine QACs against the biofilm-forming pathogen S. aureus ATCC 25923, which causes opportunistic infections of various tissues in humans. […] Antibiofilm activity was evaluated at four different concentrations (12.5, 25, 50, and 100 μ g mL^−1), and as shown on the crystal violet heat map (CV) (Figure 3A), all compounds have the potential to inhibit biofilm formation, albeit at different concentrations.
Minimum biofilm inhibitory concentration (MBIC) was determined against Staphylococcus aureus ATCC 25923. Compounds were dissolved in MHB and serially diluted in 96-well plates with a final mass concentration ranging from 100 to 12.5 µg/mL. The exponentially grown culture (OD600 = 0.3–0.5) of S. aureus ATCC 25923 was diluted to a final concentration of 5 × 10^6 CFU/mL. Then, 50 µL of such prepared cell culture was added to the 96-well plates containing twofold dilutions of the compound to be tested. The plates were incubated for 48 h. After incubation, the broth over the biofilm was aspirated, and the plate with the biofilm was dried at 60 °C. […] Absorbance was measured at 595 nm in an optical reader. The percentage of biofilm formed was calculated by dividing the absorbance of the well containing the tested substance by the absorbance of the untreated bacterial cells and multiplying by 100.

The subject of assay [14] is Staphylococcus aureus ATCC 25923. In words: MIC in Dulbecco's Modified Eagle Medium (DMEM). The note with it: ATCC25923, read-out: MIC DMEM. The method, then:
The overnight culture of Staphylococcus aureus ATCC 25923 was diluted in fresh Mueller Hinton broth (MHB) and placed in an orbital shaker incubator (Gallenkamp, Cambridge, UK) at 37 °C and 220 rpm. Once the culture reached the exponential growth phase (OD600 = 0.3–0.5), cells were centrifuged (Heraeus, Biofuge primo R, Hanau, Germany) at room temperature at a speed of 4000× g. The cell pellet was resuspended in tempered Dulbecco’s Modified Eagle Medium (DMEM) to a final concentration of 5 × 10^5 CFU/mL. Then, 50 µL of as-prepared cells were added to a 96-well plate containing twofold serial dilutions of tested compounds in DMEM medium in the range of concentrations from 125 µM to 0.12 µM. The minimum inhibitory concentration (MIC) was visually assessed the next day. The MIC was determined as the lowest concentration of the substance at which no apparent bacterial growth was seen.

[15] abbreviates: MHB, read-out: Minimum Inhibitory Concentration (MIC) Staphylococcus aureus ATCC25923.
[16] abbreviates: Staphylococcus aureus, ATCC25923, read-out: Minimum Inhibitory Concentration (MIC) Staphylococcus aureus ATCC25923.
Where [17] appears, read: Pseudomonas aeruginosa, ATTC27853, read-out: Minimum Inhibitory Concentration (MIC) Pseudomonas aeruginosa ATTC27853.
The mark [18] stands for this setting: Escherichia coli, ATTC25922, read-out: Minimum Inhibitory Concentration (MIC) Escherichia coli ATTC25922.
The mark [19] stands for this setting: Bacillus cereus, ATCC14579, read-out: Minimum Inhibitory Concentration (MIC) Bacillus cereus ATCC14579.
[20] abbreviates: Enterococcus faecalis, ATCC29212, read-out: Minimum Inhibitory Concentration (MIC) Enterococcus faecalis ATCC29212.
The mark [21] stands for this setting: Listeria monocytogenes, ATCC7644, read-out: Minimum Inhibitory Concentration (MIC) Listeria monocytogenes ATCC7644.
The mark [22] stands for this setting: Staphylococcus aureus, ATCC33591, read-out: Minimum Inhibitory Concentration (MIC) Staphylococcus aureus ATCC33591.

SMILES strings stand for the structures. Where two headings read alike, the source gives them in different places.

`CCCCCCCCCCCC[N+](C)(C)Cc1ccccc1.[Br-]` [BAB, benzyldimethyldodecylammonium bromide, reference compound]: the MIC in assay [1] (setting [15]) is reported as 10 µM; in assay [2] (MHB, read-out: Minimum Inhibitory Concentration (MIC) Pseudomonas aeruginosa ATTC27853), more than 125 µM; in assay [3] (MHB, read-out: Minimum Inhibitory Concentration (MIC) Escherichia coli ATTC25922), 63 µM; in [4] (MHB, read-out: Minimum Inhibitory Concentration (MIC) Bacillus cereus ATCC14579), 13 µM; in assay [5] (MHB, read-out: Minimum Inhibitory Concentration (MIC) Enterococcus faecalis ATCC29212), 15 µM; in assay [6] (MHB, read-out: Minimum Inhibitory Concentration (MIC) Listeria monocytogenes ATCC7644) it was 10 µM. The MIC in assay [8] (MHB, read-out: Minimum Inhibitory Concentration (MIC) Staphylococcus aureus ATCC33591) turned out to be 25 µM; in assay [10] it was 50 µM. For the same molecule, in assay [7] (MHB), the “Minimum Inhibitory Concentration (MIC) Staphylococcus aureus Clinical/MRSA” value amounted to 25 µM. Besides, the “Fold reduction in MIC” value in [9] was 32.

As to `C=CC[N+]12CCC(CC1)C(NC(=O)CCCCCCCCCCCCC)C2` (centres unmarked) [QC14-Ally], the MIC was 20 µM in assay [1] (setting [15]); 20 µM in assay [1] (setting [16]); 20 µM in assay [11]; more than 125 µM in assay [2] (setting [17]); 50 µM in assay [3] (setting [18]); 25 µM in assay [4] (setting [19]). Also, the MIC was 15 µM in assay [5] (setting [20]); 8 µM in assay [6] (setting [21]); 25 µM in [7]; 6 µM in assay [14]; 50 µM in assay [8] (setting [22]); more than 125 µM in assay [10] (Salmonella enterica). In addition, in [12], the “inhibition of bacterial growth at ½ MIC” value is listed as “unable to inhibit bacterial growth”. Further, the inhibition at 12.5 µg/mL in assay [13] was approximately 100%.

For the molecule `CCCCCCCCCCCCCC(=O)NC1C[N+]2(C)CCC1CC2` (centres unmarked) [QC14-Me], the MIC in [1] (setting [15]) was 40 µM; in assay [1] (setting [16]), 40 µM; in [11], 40 µM; in [2] (setting [17]), more than 125 µM; in assay [3] (setting [18]), 100 µM; in [4] (setting [19]), 50 µM. Besides, the MIC in [5] (setting [20]) was 30 µM; in assay [6] (setting [21]) it was 20 µM; in assay [7], 60 µM; in assay [14], 12 µM; in assay [8] (setting [22]) it was 100 µM; in [10] (Salmonella enterica), more than 125 µM. The “inhibition of bacterial growth at ½ MIC” value in [12] is “unable to inhibit bacterial growth”.

In the case of `C=CC[N+]12CCC(CC1)C(NC(=O)CCCCCCCCCCCCCCC)C2` (centres unmarked) [QC16-Ally], the MIC in assay [1] (setting [15]) was 15 µM; in assay [1] (setting [16]), 15 µM; in assay [11] it was 15 µM; in [2] (setting [17]), more than 125 µM; in assay [3] (setting [18]) it was more than 100 µM; in [4] (setting [19]), more than 100 µM. The MIC in [5] (setting [20]) was more than 100 µM; in assay [6] (setting [21]), 16 µM; in [7] it was 31 µM; in assay [14], 3 µM; in assay [8] (setting [22]), 25 µM; in [10] (Salmonella enterica), more than 125 µM. In assay [13], this molecule displayed an inhibition at 12.5 µg/mL of approximately 100%.

Consider `CCCCCCCCCCCCCCCC(=O)NC1C[N+]2(C)CCC1CC2` (centres unmarked) [QC16-Me], for which the MIC is 16 µM in assay [1] (setting [15]); 16 µM in [1] (setting [16]); 16 µM in assay [11]; more than 125 µM in assay [2] (setting [17]); more than 100 µM in assay [3] (setting [18]); more than 100 µM in assay [4] (setting [19]). Further, the MIC is 100 µM in assay [5] (setting [20]); 8 µM in assay [6] (setting [21]); 31 µM in [7]; 6 µM in assay [14]; 25 µM in assay [8] (setting [22]); more than 125 µM in assay [10] (Salmonella enterica).

In general, inhibition refers to the change of the read-out against control, counted positive when it falls.

The record behind these values is paper PMC9966435, “Synthesis and Biological Evaluation of 3-Amidoquinuclidine Quaternary Ammonium Compounds as New Soft Antibacterial Agents” (Pharmaceuticals, 2023).
